Results from US10758607B2, “Respiratory syncytial virus having cleavage-resistant G protein and related materials and methods” (The Research Institute at Nationwide Children's Hospital, priority 2015, dated 2020).

Experiments:
[1] = system: G protein cleavage in RSV virions; experiment: Virion G protein of rgRSV-L208A grown in Vero cells (immunoblot); type: cell-based; settings: purified through sucrose
Experimental: To test the infectivity of Vero-derived virus with an uncleavable G in HAE cultures, the L208A mutation was incorporated into the whole virus. rgRSV and rgRSV-L208A were grown in HeLa or Vero cells, purified by sucrose gradient, and their virion G proteins assessed by immunoblot (FIG. 7A). For FIG. 7A, the L208A mutant G protein gene was inserted into the full-length RSV genome cDNA, in place of the wt G protein. The mutant RSV was rescued and grown in HeLa or Vero cells, purified by centrifugation through a 35% sucrose cushion, and G protein assessed as before. […] The viruses were titrated on HeLa cells and equivalent infectious units used to inoculate HeLa or HAE cultures. […] For FIG. 7B, virus was titrated on HeLa cells and equivalent infectious units were used to inoculate HAE and HeLa in parallel. Virus-infected (green) cells were counted at 24 (HeLa) or 48 (HAE) hpi.
The full-length RSV cDNA construct, RW30 (Kwilas et al., J Virol (2010) 84:7770-7781), was used as the backbone for a modification of the G protein gene at amino acid 208 from a […] to an alanine. RW30 was digested with restriction enzymes EcoICRI and SacII (Thermo Fisher Scientific Waltham, Mass.) to remove the G gene, and the remaining vector was isolated from an 0.5% agarose gel following electrophoresis and eluted from the gel fragment with the Qiaex II gel elution kit (Qiagen, Valencia, Calif.). […]

[2] = system: RSV G protein cleavage in Vero cells; experiment: Cleavage of mutant G proteins transiently expressed in Vero cells (immunoblot); type: cell-based
Experimental: The G gene in the region of amino acid 210 was modified by deleting stretches of amino acids in this region (200-211, 204-213, 206-215, 208-217, or 209-213). […] Most of the mutants almost completely ablate cleavage. They all share amino acids 208-211. However, A206-210 and A206-215, both of which bring together amino acids that can also serve as a cathepsin L cleavage site. For FIG. 6B, the mutated G protein genes were transiently expressed in Vero cells. 24 h post-transfection cells were harvested, lysed and proteins were separated by SDS-PAGE, blotted and probed with mAb to the G protein.
To identify which amino acids are important for cleavage, individual amino acids in and around this region were changed to alanine. These mutant G proteins were transiently expressed in Vero cells and assessed by immunoblot (FIG. 6C). For FIG. 6C, the mutated G protein genes were transiently expressed in Vero cells. 24 hours post-transfection cells were harvested, lysed and proteins were separated by SDS-PAGE, blotted and probed with mAb to the G protein.
The strain A2 G protein plasmid was mutagenized using synthetic double strand gBlock DNA (Integrated DNA Technologies). Van91I (Thermo Fisher) and Xho I (New England Biolabs) were used to digest plasmid and gBlock. Doubly-digested plasmid was isolated by agarose gel electrophoresis. Digested gBlock and eluted plasmid DNAs were ligated with T4 DNA ligase (Promega, Madison, Wis.), and transformed into One Shot MachI-T1 chemically competent bacteria (Life Technologies). Plasmids were extracted using HiSpeed or Plasmid Plus Maxi kits (Qiagen).
Wild type G or frG proteins were expressed in HeLa or Vero cells following plasmid transfection with FuGene HD (Promega) or Lipofectamine LTX (Life Technologies), respectively, in medium containing 2% FBS. In frG experiments, medium was collected and concentrated using Ultracel-10 K centrifugal filters (EMD Millipore, Billerica, Mass.). For other transfection experiments, Vero cells were transfected using Lipofectamine 3000 (Life Technologies) in medium containing 10% FBS. For all transfection experiments, cells were lysed and protein quantified by BCA assay. Equivalent HeLa or Vero cell lysate protein and equivalent volumes of concentrated proteins from the medium were analyzed by immunoblotting.

## L208: RSV strain A2 G protein with alanine substitution for L208
[1]
  virion G protein cleavage: prevention of G protein cleavage
[2]
  efficiency at inhibiting cleavage (rank among alanine substitutions): most efficient
[2]; 24 hours post-transfection
  resistance to cleavage of alanine substitution G protein mutants: partially to nearly completely resistant to cleavage
